Data on 2 molecules can be found in patent US20150164957A1, “CONVERSION OF CARDIOMYOCYTES INTO FAST CONDUCTING CARDIOMYOCYTES OR SLOW CONDUCTING NODAL CELLS” (The University of Chicago, priority 2012, published 2015).

Assay [1] concerns tamoxifen-treated Tbx5^minKCreERT2 and Tbx5^fl/fl mice. The assay can be described thus: Invasive EP studies (intracardiac recordings) following atropine administration. The assay is classed as in vivo, mouse. As to conditions: for AH (AtrioHisian interval) / HV (Hisioventricular interval) / Hd (His interval duration) / SCL (sinus cycle length): Post-Atropine (20 mg/kg), Mean +/- SD. The protocol:
Electrophysiology Studies. Electrophysiology studies were performed in collaboration with Fang Liu, Kurt Schillinger, and Vic Patel at The University of Pennsylvania. Detailed protocols for in vivo electrophysiology studies have been previously described (Liu, et al., 2008). 10-12 week old mice were anesthetized with pentobarbital (33 mg/kg ip) and a 1.1-Fr octapolar electrode catheter (Millar; EPR-800) was advanced via a right jugular venous cut-down to record right atrial, His bundle, right ventricular potentials and perform programmed electrical stimulation. For studies involving atropine, surface ECG and intracardiac recordings were obtained, then repeated after mice were injected with 20 mg/kg atropine.
The autonomic nervous system can play an important role in modulating cardiac conduction. Specifically, activation of the sympathetic nervous system can increase heart rate, contractility, and accelerate conduction through the AV node, while parasympathetic stimulation via the vagus nerve can act at the SA and AV nodes to decrease heart rate and slow AV conduction. To determine whether slowed conduction in Tbx5^minkCreERT2 mice was secondary to increased vagal tone, the inventors administered atropine, a cholinergic antagonist, to tamoxifen-treated Tbx5^minKCreERT2 and Tbx5^fl/fl mice and evaluated conduction intervals by EP studies.

Assay [2] concerns Mice with hyperactivation of Nav1.8. As to conditions: cited from earlier work.
For assay [3], the target named is Nav1.8 (Homo sapiens, UniProt Q9Y5Y9). Conditions: at the dose used; cited from earlier work.
For assay [4], the system named is Nav1.8. As to conditions: after administration of A-803467; cited from earlier work.

Sequence of Nav1.8 (Homo sapiens, UniProt Q9Y5Y9) (Q9Y5Y9 whole entry): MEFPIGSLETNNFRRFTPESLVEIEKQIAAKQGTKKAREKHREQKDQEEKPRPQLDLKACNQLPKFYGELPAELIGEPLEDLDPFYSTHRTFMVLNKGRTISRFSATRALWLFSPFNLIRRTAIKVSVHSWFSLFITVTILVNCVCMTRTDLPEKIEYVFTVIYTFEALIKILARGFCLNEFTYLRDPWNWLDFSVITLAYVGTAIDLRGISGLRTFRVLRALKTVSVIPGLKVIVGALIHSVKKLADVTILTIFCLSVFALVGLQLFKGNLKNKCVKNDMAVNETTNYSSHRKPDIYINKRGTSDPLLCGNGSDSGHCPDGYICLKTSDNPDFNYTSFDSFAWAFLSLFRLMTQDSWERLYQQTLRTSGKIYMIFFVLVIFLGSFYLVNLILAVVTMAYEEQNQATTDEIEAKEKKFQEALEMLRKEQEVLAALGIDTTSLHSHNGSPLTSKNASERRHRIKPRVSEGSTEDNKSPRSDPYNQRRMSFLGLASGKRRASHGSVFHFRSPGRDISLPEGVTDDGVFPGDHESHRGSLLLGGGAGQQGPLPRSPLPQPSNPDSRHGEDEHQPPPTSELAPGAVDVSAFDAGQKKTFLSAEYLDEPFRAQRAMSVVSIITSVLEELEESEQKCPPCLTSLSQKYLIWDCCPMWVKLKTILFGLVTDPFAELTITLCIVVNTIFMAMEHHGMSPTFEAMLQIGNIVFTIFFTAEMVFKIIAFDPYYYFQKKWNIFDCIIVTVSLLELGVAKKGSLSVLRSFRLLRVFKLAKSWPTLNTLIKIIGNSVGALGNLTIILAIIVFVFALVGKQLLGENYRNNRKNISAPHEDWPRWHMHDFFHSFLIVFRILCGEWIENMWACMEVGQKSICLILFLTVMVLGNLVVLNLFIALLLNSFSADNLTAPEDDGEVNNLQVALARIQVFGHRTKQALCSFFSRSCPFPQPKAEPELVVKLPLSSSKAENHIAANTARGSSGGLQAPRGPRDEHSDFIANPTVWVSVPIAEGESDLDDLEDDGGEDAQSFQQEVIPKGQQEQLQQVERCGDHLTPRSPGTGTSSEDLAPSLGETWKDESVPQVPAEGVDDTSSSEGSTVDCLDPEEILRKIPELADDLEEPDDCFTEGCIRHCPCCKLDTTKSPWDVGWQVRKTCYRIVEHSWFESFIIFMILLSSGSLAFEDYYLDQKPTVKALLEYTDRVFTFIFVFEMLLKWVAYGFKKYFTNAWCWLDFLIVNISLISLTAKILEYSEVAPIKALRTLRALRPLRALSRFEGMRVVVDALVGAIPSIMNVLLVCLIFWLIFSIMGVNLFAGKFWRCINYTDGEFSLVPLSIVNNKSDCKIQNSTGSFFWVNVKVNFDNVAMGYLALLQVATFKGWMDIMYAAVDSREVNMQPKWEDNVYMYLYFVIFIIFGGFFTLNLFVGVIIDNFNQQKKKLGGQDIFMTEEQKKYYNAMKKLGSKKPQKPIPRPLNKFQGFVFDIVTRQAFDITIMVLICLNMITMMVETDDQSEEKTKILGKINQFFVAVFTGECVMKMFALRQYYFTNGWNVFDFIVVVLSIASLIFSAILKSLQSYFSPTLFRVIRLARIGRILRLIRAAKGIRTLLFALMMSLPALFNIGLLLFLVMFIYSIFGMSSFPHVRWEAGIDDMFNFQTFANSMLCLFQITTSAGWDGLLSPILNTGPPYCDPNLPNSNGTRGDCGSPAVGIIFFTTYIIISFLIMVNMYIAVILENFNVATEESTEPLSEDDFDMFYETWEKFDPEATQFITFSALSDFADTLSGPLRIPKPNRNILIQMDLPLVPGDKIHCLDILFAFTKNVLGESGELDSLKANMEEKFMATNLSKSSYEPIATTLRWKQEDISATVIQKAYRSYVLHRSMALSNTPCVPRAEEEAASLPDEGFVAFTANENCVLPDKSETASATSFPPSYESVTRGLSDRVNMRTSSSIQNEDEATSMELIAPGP

In the case of `CN1[C@@H]2CC[C@H]1C[C@@H](OC(=O)C(CO)c1ccccc1)C2` (some centres unmarked) [Atropine, atropine], in assay [1] (Tbx5^fl/fl mice (n = 3)), the “AH (AtrioHisian interval)” value is listed as 28.0 ± 9.9 ms, the “HV (Hisioventricular interval)” value was found to be 9.0 ± 3.2 ms, the “Hd (His interval duration)” value is 3.7 ± 1.5 ms and the “SCL (sinus cycle length)” value came out at 141.3 ± 30.9 ms. Further, in assay [1] (Tbx5^minKCreERT2 mice (n = 3)), the “AH (AtrioHisian interval)” value came to 35.7 ± 3.6 ms, the “HV (Hisioventricular interval)” value worked out at 26.0 ± 2.4 ms, the “Hd (His interval duration)” value was 11.7 ± 2.5 ms and the “SCL (sinus cycle length)” value is listed as 146.3 ± 11.6 ms. Besides, the “Effect of cholinergic blockade on conduction” value in assay [1] (Tbx5^minKCreERT2 or Tbx5^fl/fl mice, EP studies) is reported as “did not result in accelerated conduction”. In assay [2], the “Effect on sinus bradycardia following scruffing” value is listed as “blocked”.

On to `COc1cc(NC(=O)c2ccc(-c3ccc(Cl)cc3)o2)cc(OC)c1` [A-803467], for which, at Nav1.8 [3], the “Activity against Nav1.8 relative to Nav1.5” value is recorded as 100 fold. Besides, in the assay on Nav1.8 [4], the H-V interval entry was “increased”, the P-R interval result is listed as “increased” and the QRS interval result is given as “increased”.
